Source: patent US20260327233A1, “Heteroaryl Compounds as Ligand Directed Degraders of IRAK4” (Celgene Corporation, priority 2023, published 2026)
Where a name gives a salt, the structure may show the parent alone.

How the values were obtained:
[1] = molecular target: T1, IRAK4 (Homo sapiens, UniProt Q9NWZ3); experiment: IRAK4 PhosphoSens Biochemical Assay (BIOCHEM); conditions: IRAK4 1 nM; ATP and Sox conjugated peptide substrate AQT0326; pH 7.5; room temperature; 240 minutes
T1 sequence (Q9NWZ3 1-460): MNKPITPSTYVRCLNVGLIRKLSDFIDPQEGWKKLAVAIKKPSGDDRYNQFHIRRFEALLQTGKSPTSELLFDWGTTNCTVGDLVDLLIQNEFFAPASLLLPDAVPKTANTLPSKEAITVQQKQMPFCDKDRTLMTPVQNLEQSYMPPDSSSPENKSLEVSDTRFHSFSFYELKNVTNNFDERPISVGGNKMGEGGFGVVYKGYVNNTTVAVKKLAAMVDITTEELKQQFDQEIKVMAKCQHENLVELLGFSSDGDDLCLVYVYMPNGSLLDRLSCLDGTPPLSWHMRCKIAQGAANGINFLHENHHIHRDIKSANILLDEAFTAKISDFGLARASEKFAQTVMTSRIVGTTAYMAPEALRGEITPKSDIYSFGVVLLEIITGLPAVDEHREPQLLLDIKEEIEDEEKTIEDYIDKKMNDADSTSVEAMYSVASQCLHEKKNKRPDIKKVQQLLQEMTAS
Method: The PhosphoSens® biochemical assay was performed as described by the vendor (AssayQuant Technologies Inc. Marlborough, MA). A 1.25× stock solution of IRAK4 (PV4002, ThermoFisher Scientific, Waltham, MA) and a 5× stock solution of ATP and Sox conjugated peptide substrate, AQT0326 (CSKS-AQT0326B, AssayQuant Technologies), were prepared in 1× kinase reaction buffer consisting of 50 mM HEPES, pH 7.5, 0.01% Brij-35, 0.5 mM EGTA, 20 mM MgCl2 and 1 mM DTT. 10 μL of the ATP and substrate solution mix, for a final concentration of 200 µM ATP and […] peptide substrate, was added to a Corning 3574 384-well, white, non-binding surface microtiter plate containing 0.5 μL of serially diluted test compounds prepared in DMSO. The reactions were started with the addition of 40 μL of the enzyme solution, for a final IRAK4 concentration of 1 nM, and monitored every 71 seconds for 240 minutes at λEX 360/λEM 485 in a BioTek Synergy H4 plate reader (Agilent Technologies, Santa Clara, CA) at room temperature. The initial linear portions of the progress curves were fit according to a linear equation to yield the slopes and converted to % inhibition based on a value of 100% activity for the no inhibitor treated control. IC50 values of each compound were obtained by fitting the % inhibition-compound concentration curves using Dotmatics software (Dotmatics, Bishops Stortford, Hertfordshire, England),

[2] = molecular target: T1, IRAK4; experiment: ALE THP1 HTRF (IRAK4 HTRF in THP1 cell lysate, Cisbio HTRF kit); format: cell-based; design: THP1 Homogeneous Time Resolved Fluorescence (ALE THP1 HTRF) Procedure; endogenous in cells; host or cells: THP1; conditions: anti-IRAK4 d2 / anti-IRAK4 k antibodies
Method: Cell culture media was prepared in a tissue culture hood in a sterile environment by adding 10% FBS and 1% Penicillin Streptomycin to 500 mL no phenol red RPMI 1640 media. The media was filtered through a Nalgene Bottle Top Filter and stored at 4° C.
For Homogenous Time Resolved Fluorescence (HTRF) assays, a Cisbio HTRF kit was used, which included: Lysis Buffer #1 4×, Blocking Reagent #3 100×, 20× Antibody 1 (Anti-IRAK4 d2), 20× Antibody 2 (Anti-IRAK4 k), and Detection Buffer.
4× Lysis Buffer was stored at 4° C. For use as 1× Lysis buffer, the 4× solution was diluted with de-ionized water (distilled water, Gibco Cat. #15230279) and 100× Blocking Reagent in a 1:3:0.04 volume ratio.
20× Antibody Solution aliquots were stored at −80° C. and the Detection Buffer was stored at 4° C. For use as a 1× Antibody Solution, the 20× Antibody Solution aliquot was diluted with Detection Buffer in a 1:19 volume ratio.
Cells were lysed at room temperature for 45 min with shaking. A BCA protein assay was performed and normalization was conducted to the desired total protein concentration with 1× lysis buffer. Next, 1× Antibody Solutions were prepared by adding 380 μL Detection Buffer to 20 μL 20× Antibody Solution aliquots and mixing well. 1× Antibody Solutions were combined 1:1 and briefly vortexed. For control wells, 20 μL 1× anti IRAK4-k Antibody Solution was saved. The 384-well plate (ProxiPlate-384 Plus, Perkin Elmer Cat. #6008289) was loaded by adding 4 μL of the mixed Antibody Solution to empty wells using a single channel repeater. Using a multi-channel repeater, 16 μL lysate was added per well, and any bubbles that were formed were popped with 20 μL pipette tips and Kimwipe edges. In column 10, triplicates of each control were prepared. In wells A10, B10, and C10, buffer control was prepared by adding 16 μL Lysis Buffer and 4 μL Detection Buffer. In wells D10, E10, and F10, cryptate control was prepared by adding 16 μL Lysis Buffer, 2 μL Detection Buffer, and 2 μL 1× anti-IRAK4-k Antibody Solution. In wells G10, H10, and 110, a negative control was prepared by adding 16 μL Lysis Buffer and 4 μL mixed Antibody Solution. The plate was sealed with a clear seal and covered with an aluminum lid. The plate was spun down at 800 g for 5 min and incubated in the dark at room temperature overnight. The next day, the plate was spun down at 800 g for 5 min. The samples were analyzed by a plate reader (Envision, PerkinElmer) using the Desnor 384 HTRF program.

In the case of `CN(C[C@H]1CC[C@H](n2cc(NC(=O)c3cnn4ccc(N5C[C@H](N)C[C@@H](F)C5)nc34)c(C(F)F)n2)CC1)C1CCN(c2ccc3c(c2)CN(C2CCC(=O)NC2=O)C3=O)CC1` (stereo partly drawn) [Compound P-32, N-[3-(Difluoromethyl)-1-[4-[[[1-[2-(2,6-dioxo-3-piperidyl)-1-oxo-isoindolin-5-yl]-4-piperidyl]-methyl-amino]methyl]cyclohexyl]pyrazol-4-yl]-5-[(3r,5r)-3-amino-5-fluoro-1-piperidyl]pyrazolo[1,5-a]pyrimidine-3-carboxamide hydrochloride], the IC50 [1] is reported as < 0.5 nM, the EC50 [2] is reported as 6 nM and the “ALE THP1 HTRF YMIN” value [2] is reported as 12%.

With `N[C@@H]1C[C@@H](F)CN(c2ccn3ncc(C(=O)Nc4cn([C@H]5CC[C@H](C(=O)N6CCN(c7ccc8c(c7)C(=O)N(C7CCC(=O)NC7=O)C8)CC6)CC5)nc4C(F)(F)F)c3n2)C1` (stereo partly drawn) [Compound P-22] the IC50 [1] was < 0.5 nM, the EC50 [2] was 3 nM and the “ALE THP1 HTRF YMIN” value [2] was 27%.

In the case of `N#Cc1nn([C@H]2CC[C@H](C(=O)N3CCN(c4ccc5c(c4)C(=O)N(C4CCC(=O)NC4=O)C5=O)CC3)CC2)cc1NC(=O)c1cnn2ccc(N3CCC[C@@H](O)C3)nc12` (stereo partly drawn) [Compound P-11], the IC50 [1] is reported as 0.5 nM, the EC50 [2] is reported as > 10000 nM and the “ALE THP1 HTRF YMIN” value [2] is reported as 74%.

`N#Cc1nn(C2CCC(C(=O)N3CCN(c4ccc5c(c4)C(=O)N(C4CCC(=O)NC4=O)C5=O)CC3)CC2)cc1NC(=O)c1cnn2ccc(N3C[C@H](N)C[C@@H](F)C3)nc12` (stereo partly drawn) [Compound P-8] was tested, and the IC50 [1] was < 0.5 nM, the EC50 [2] was 8.9 nM and the “ALE THP1 HTRF YMIN” value [2] was 33%.
